Experimental data reported in patent publication US20250281518A1, “METHODS AND AGENTS FOR PREVENTING SKELETAL AGING, OSTEOPOROSIS AND OBESITY” (The Regents of the University of California, priority 2022, published 2025).
“Also recorded” adds a separate entry of the source.

Tests used:
[1] = Stability of water solutions; assay type: physicochemical; conditions: water solution
Solubility in water = assay type: physicochemical
OVX C57BL/6J female mice = assay: Ovariectomy (OVX)-induced osteoporosis and obesity in mice, dosing in drinking water over two months; assay type: in vivo, mouse
From the text: Aging-related bone loss and osteoporosis frequently occur in women after menopause. To mimic the pathogenesis of osteoporotic bone loss, we performed ovariectomy (OVX) on female mice to induce estrogen deficiency. […] Mice weight on average 20 g at the start of the experiment. […] Dosing was over two months.
(§1) For the mice on high fat diets, the starting animal weights were about 25 grams.
(§2) We monitored mouse body weight, food and water consumption on a weekly basis for two months. Nuclear magnetic resonance scanner was used to assess lean mass and fat mass composition. Serum chemistries were analyzed in UCLA DLAM facility. Liver and adipose tissues were harvested for histology and histomorphometric analyses. Femur, tibia and mandible were subjected to micro-CT scanning and reconstruction. […] One-way ANOVA was performed to quantify differences among all the groups.

HFD-fed mice = assay: High fat diet (HFD)-induced obesity and bone loss in mice, dosing in drinking water for three months; assay type: in vivo, mouse
From the text: as §1
as §2, with “Mice were given a regular diet or high fat diet (HFD) for three months beginning at age of 8 weeks. […] Body” for “We monitored mouse body”, “consumption were monitored” for “consumption”, “three” for “two”, “composition.” for “composition. Serum chemistries were analyzed in UCLA DLAM facility.”

aged C57BL/6J male mice = assay: Bone and adipose metabolism in aged mice, dosing in drinking water from 18 months of age for six months; assay type: in vivo, mouse; conditions: for body weight: after six months treatment
Method: as §1
Mice weighed 40 g on average at the start of the study. Body weight, food and water consumption were monitored on a weekly basis. Nuclear magnetic resonance scanner was used to assess lean mass and fat mass composition. Liver and adipose tissues were harvested for histology and histomorphometric analyses. Femur, tibia and mandible were subjected to μCT scanning and reconstruction. […] One-way ANOVA was performed to quantify differences among all the groups.

[2] = 100 mg/kg/day alone, compared with 500 mg/kg/day and combination groups

Row | Molecule | stability of the water solutions [1] | solubility in water (Solubility in water) | weight and size of liver (OVX C57BL/6J female mice; 100 mg/kg/day alone, OVX mice) | OVX-induced body weight gain (OVX C57BL/6J female mice; 100 mg/kg/day alone, drinking water, two months) | OVX-induced mouse body weight gain (OVX C57BL/6J female mice; 500 mg/kg/day alone, drinking water, two months) | fat mass (nuclear magnetic resonance) (HFD-fed mice; 100 mg/kg/day alone, HFD) | weight gains induced by HFD (HFD-fed mice; low concentration (100 mg/kg/day) alone, three months) | pgWAT weight gain induced by HFD (HFD-fed mice; low concentration alone) | body weight (aged C57BL/6J male mice; 100 mg/kg/day alone, compared with control) | fat mass and lean mass (nuclear magnetic resonance) (aged C57BL/6J male mice; [2]) | weight and size of liver (aged C57BL/6J male mice; [2]) | weight of pgWAT (aged C57BL/6J male mice; [2]) | body weight (aged C57BL/6J male mice; 500 mg/kg/day alone) | weight and size of liver (aged C57BL/6J male mice; 500 mg/kg/day alone, comparison is worded from the side of control and 100 mg/kg/day groups)
1 | alpha-ketoglutarate [α-KG] | highly stable | – | – | – | – | – | – | – | – | – | – | – | – | –
2 | NC(=O)c1ccc[n+]([C@@H]2O[C@H](COP(=O)([O-])O)[C@@H](O)[C@H]2O)c1 [NMN, 3-carbamoyl-1-[5-O-(hydroxyphosphinato)-β-D-ribofuranosyl]pyridinium] | highly stable | dissolve well in water | did not significantly affect | ineffective; also recorded: did not significantly inhibit | significantly inhibited | could not affect | did not significantly reduce | did not significantly inhibit | increased at a similar rate | significantly higher fat mass and lower lean mass | significantly higher | significantly higher | decreased significantly | significantly higher in control, 100 mg/kg/day α-KG, and 100 mg/kg/day NMN groups compared with
